# From PubChem BioAssay AID342 (DTP/NCI, 2004)
# Several values for one entry are separate records, joined by “and”; a condition that tells them apart may be missing. Identical values can stand only once.
# System: Swiss mice, Sarcoma 180 sc, mean tumor weight T/C
# Assay: NCI In Vivo Anticancer Drug Screen. Data for tumor model Sarcoma 180 (subcutaneous) in Swiss mice
# Details: endpoint: mean tumor weight, higher = larger tumour
# Procedure, shortened: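 Antitumor activity is assessed in mice with transplantable tumors. Treated (T) and vehicle control (C) groups are compared on survival or tumor size.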
compound,measurement,setting,value
CC(=O)Nc1c(Cl)c(Cl)c2c(c1Cl)Cc1cc(Br)ccc1-2,T/C,"dose: 3.0 mg/kg/injection, schedule: Q01DX007 (ip), vehicle: carboxymethylcellulose (CMC)",75 % of control
same,T/C,"dose: 6.0 mg/kg/injection, schedule: Q01DX007 (ip), vehicle: carboxymethylcellulose (CMC)",74 % of control
same,T/C,"dose: 6.0 mg/kg/injection, schedule: Q01DX007 (ip), vehicle: other",38 % of control
same,T/C,"dose: 9.0 mg/kg/injection, schedule: Q01DX007 (ip), vehicle: other",69 % of control
same,T/C,"dose: 12.0 mg/kg/injection, schedule: Q01DX007 (ip), vehicle: carboxymethylcellulose (CMC)",45 % of control
same,T/C,"dose: 13.0 mg/kg/injection, schedule: Q01DX007 (ip), vehicle: other",46 % of control
same,T/C,"dose: 19.0 mg/kg/injection, schedule: Q01DX007 (ip), vehicle: other",56 % of control
same,T/C,"dose: 25.0 mg/kg/injection, schedule: Q01DX007 (ip), vehicle: carboxymethylcellulose (CMC)",63 % of control
same,T/C,"dose: 28.0 mg/kg/injection, schedule: Q01DX007 (ip), vehicle: other",35 % of control
same,T/C,"dose: 41.0 mg/kg/injection, schedule: Q01DX007 (ip), vehicle: other",62 % of control
same,T/C,"dose: 50.0 mg/kg/injection, schedule: Q01DX007 (ip), vehicle: carboxymethylcellulose (CMC)",49 % of control
same,T/C,"dose: 63.0 mg/kg/injection, schedule: Q01DX007 (ip), vehicle: other",33 % of control
same,T/C,"dose: 100.0 mg/kg/injection, schedule: Q01DX007 (ip), vehicle: carboxymethylcellulose (CMC)",30 % of control
Nc1ccc(C(=O)O)c(O)c1,T/C,"dose: 95.87 mg/kg/injection, schedule: Q01DX007 (ip), vehicle: carboxymethylcellulose (CMC)",108 % of control and 121 % of control
same,T/C,"dose: 306.8 mg/kg/injection, schedule: Q01DX007 (ip), vehicle: carboxymethylcellulose (CMC)",44 % of control
same,T/C,"dose: 511.33 mg/kg/injection, schedule: Q01DX007 (ip), vehicle: carboxymethylcellulose (CMC)",57 % of control
N=C(c1nsnc1N)N1CCCC1,T/C,"dose: 125.0 mg/kg/injection, schedule: Q01DX007 (ip), vehicle: saline",100 % of control
N#[N+]c1nc2ncnc(N)c2[nH]1,T/C,"dose: 6.25 mg/kg/injection, schedule: Q#A X014 (ip), vehicle: saline",66 % of control
same,T/C,"dose: 12.5 mg/kg/injection, schedule: Q#A X014 (ip), vehicle: saline",65 % of control
same,T/C,"dose: 25.0 mg/kg/injection, schedule: Q#A X014 (ip), vehicle: saline",86 % of control
Cn1cc(NC(=O)c2cc(NC(=O)c3cc(NC=O)cn3C)cn2C)cc1C(=O)NCCC(=N)N,T/C,"dose: 20.0 mg/kg/injection, schedule: Q01DX007 (sc), vehicle: water",80 % of control
same,T/C,"dose: 25.0 mg/kg/injection, schedule: Q01DX007 (sc), vehicle: water",77 % of control
same,T/C,"dose: 40.0 mg/kg/injection, schedule: Q01DX007 (sc), vehicle: water",92 % of control
same,T/C,"dose: 50.0 mg/kg/injection, schedule: Q01DX007 (sc), vehicle: water",64 % of control
same,T/C,"dose: 75.0 mg/kg/injection, schedule: Q01DX007 (sc), vehicle: water",71 % of control
COc1ccc2c3c(c4cc(OC)c(OC)cc4c2c1)C[C@H]1CCCCN1C3,T/C,"dose: 0.5 mg/kg/injection, schedule: Q01DX007 (ip), vehicle: carboxymethylcellulose (CMC)",82 % of control
same,T/C,"dose: 1.0 mg/kg/injection, schedule: Q01DX007 (ip), vehicle: carboxymethylcellulose (CMC)",65 % of control
CC1=NCCc2c1cc1c([nH]c3ccccc31)c2C,T/C,"dose: 25.0 mg/kg/injection, schedule: Q01DX007 (ip), vehicle: water",108 % of control
same,T/C,"dose: 50.0 mg/kg/injection, schedule: Q01DX007 (ip), vehicle: water",91 % of control
same,T/C,"dose: 100.0 mg/kg/injection, schedule: Q01DX007 (ip), vehicle: water",72 % of control
same,T/C,"dose: 200.0 mg/kg/injection, schedule: Q01DX007 (ip), vehicle: water",28 % of control
COc1ccc(C[C@H]2NC[C@H](O)[C@H]2OC(C)=O)cc1,T/C,"dose: 3.13 mg/kg/injection, schedule: Q01DX007 (ip), vehicle: saline",65 % of control
same,T/C,"dose: 6.25 mg/kg/injection, schedule: Q01DX007 (ip), vehicle: saline",69 % of control
same,T/C,"dose: 12.5 mg/kg/injection, schedule: Q01DX007 (ip), vehicle: saline",58 % of control
same,T/C,"dose: 25.0 mg/kg/injection, schedule: Q01DX007 (ip), vehicle: saline",56 % of control and 66 % of control
same,T/C,"dose: 50.0 mg/kg/injection, schedule: Q01DX007 (ip), vehicle: saline",108 % of control
same,T/C,"dose: 100.0 mg/kg/injection, schedule: Q01DX007 (ip), vehicle: saline",104 % of control
